Measurements taken from ChEMBL document CHEMBL1156829 (Proc Natl Acad Sci U S A, 2008).

Experiments:
[1] = test system: Plasmodium falciparum; assay: NOVARTIS: Inhibition of Plasmodium falciparum 3D7 (drug-susceptible) proliferation in erythrocyte-based infection assay; assay type: functional, organism-based; details: Plasmodium falciparum, 3D7
[2] = test system: Plasmodium falciparum; assay: NOVARTIS: Inhibition of Plasmodium falciparum W2 (drug-resistant) proliferation in erythrocyte-based infection assay; assay type: functional, organism-based; details: Plasmodium falciparum, W2; read-out: EC50
[3] = NOVARTIS: Cytotoxicity against human hepatocellular carcinoma cell line (Huh7); assay type: toxicity, cell-based, Huh-7; details: Huh7 cells (hepatocellular carcinoma cell line)

## COC(=O)c1c(NC(=O)c2cc3ccccc3oc2=O)sc2c1CCC(C)C2 (configuration not stated)
[1]
  EC50: > 12500 nM
[2]
  EC50: > 7460 nM
[3]
  CC50: > 100000 nM

## CN1CCN(N/C=C2/C(=O)N(c3nc4ccccc4s3)N=C2c2ccccc2)CC1
[1]
  EC50: > 549 nM
[2]
  EC50: > 1740 nM
[3]
  CC50: > 10000 nM

## Cc1cn2c3ccccc3n(CCN3CCOCC3)c2n1
[1]
  EC50: > 2480 nM
[2]
  EC50: > 12500 nM
[3]
  CC50: > 100000 nM

## CN(C)c1ccc(C=NNc2nc(N)nc(N)n2)cc1
[1]
  EC50: 2000 nM
[2]
  EC50: > 1250 nM
[3]
  CC50: > 10000 nM

## CC(C)(C)CC(C)(C)Nc1c(-c2ccccc2OC(=O)c2cccc(Cl)c2)nc2ccccn12
[1]
  EC50: 629 nM
[2]
  EC50: 41.6 nM
[3]
  CC50: > 10000 nM

## Fc1ccccc1Nc1nc(NCC2CCCO2)c2ccccc2n1 (configuration not stated)
[1]
  EC50: 669 nM
[2]
  EC50: 637 nM
[3]
  CC50: 34200 nM

## CC(=Cc1sc2ccc3occc3c2[n+]1CCO)C=C1Sc2ccc3ccoc3c2N1CCO.CCC(=Cc1sc2ccc3ccccc3c2[n+]1C)C=C1Sc2ccc3ccccc3c2N1C
[1]
  EC50: > 373 nM
[2]
  EC50: 144 nM
[3]
  CC50: > 10000 nM

## CN(C)c1ccc(-c2n(C)c3ccccc3[n+]2C)cc1
[1]
  EC50: 1120 nM
[2]
  EC50: 636 nM
[3]
  CC50: > 100000 nM

## Cc1ccc2cc3c(N)c4cccc(C)c4nc3nc2c1
[1]
  EC50: 115 nM
[2]
  EC50: 73.6 nM
[3]
  CC50: > 10000 nM

## CC(C(=O)N1CCN(C(c2ccccc2)c2ccccc2)CC1)N(CCN1CCOCC1)S(=O)(=O)c1ccccn1 (configuration not stated)
[1]
  EC50: > 819 nM
[2]
  EC50: 287 nM
[3]
  CC50: > 10000 nM

## O=C(N/C(=C/C=C/c1ccccc1)C(=O)N1CCCCC1)c1ccc([N+](=O)[O-])cc1
[1]
  EC50: > 719 nM
[2]
  EC50: > 889 nM
[3]
  CC50: > 10000 nM

## COc1cccc(Cn2c(C)nc3cc(NC(=O)Nc4ccccc4)c(C)nc32)c1
[1]
  EC50: > 443 nM
[2]
  EC50: 163 nM
[3]
  CC50: > 13100 nM

## O=C(COC(c1ccccc1)c1c(Cl)cncc1Cl)N1CCNCC1 (configuration not stated)
[1]
  EC50: 592 nM
[2]
  EC50: 2570 nM
[3]
  CC50: 48200 nM

## CC(C)(C)CC(C)(C)Nc1c(-c2ccccc2OC(=O)c2ccc(Cl)cc2Cl)nc2ccccn12
[1]
  EC50: 279 nM
[2]
  EC50: 10.3 nM
[3]
  CC50: > 10000 nM

## CCOC(=O)c1ccc(NCc2c(C)[nH]c3ccccc3c2=O)cc1
[1]
  EC50: 342 nM
[2]
  EC50: 254 nM
[3]
  CC50: > 100000 nM

## Cc1cc(N2CCN(CC=Cc3ccccc3)CC2)n2c(nc3ccccc32)c1C#N
[1]
  EC50: 657 nM
[2]
  EC50: 942 nM
[3]
  CC50: > 100000 nM

## CC1N=C(c2ccc(NC(=O)c3ccc(C(=O)Nc4ccc(C5=NC(C)C(C)N5)cc4)cc3)cc2)NC1C (configuration not stated)
[1]
  EC50: 57.6 nM
[2]
  EC50: 14.8 nM
[3]
  CC50: > 100000 nM

## N#Cc1cc(-c2cccc(C(F)(F)F)c2)cn(Cc2c(Cl)cccc2Cl)c1=O
[1]
  EC50: > 7430 nM
[2]
  EC50: 5080 nM
[3]
  CC50: > 100000 nM

## FC(F)(F)c1cccc(-c2cncc(N3CCN(c4ccccn4)CC3)n2)c1
[1]
  EC50: 5770 nM
[2]
  EC50: 1910 nM
[3]
  CC50: 45700 nM

## CCCOc1ccc(C=Nc2ccc(S(=O)(=O)Nc3ccccn3)cc2)cc1
[1]
  EC50: 1410 nM
[2]
  EC50: 813 nM
[3]
  CC50: > 10000 nM

## O=C(NCCCNC(=O)Nc1cccc(C2=NCCN2)c1)Nc1cccc(C2=NCCN2)c1
[1]
  EC50: 326 nM
[2]
  EC50: 256 nM
[3]
  CC50: > 10000 nM

## CCOC(=O)c1cccc(NC(=O)CC2C(=O)N(c3ccccc3)C(=O)N2C2CCCC2)c1 (configuration not stated)
[1]
  EC50: 276 nM
[2]
  EC50: 88.4 nM
[3]
  CC50: > 100000 nM

## CCCCCCCCn1c(C)[n+](CC)c2cc(C(=O)OCC)ccc21
[1]
  EC50: 686 nM
[2]
  EC50: 504 nM
[3]
  CC50: > 100000 nM

## COc1ccc(CNC2CCN(c3cccc(NC(=O)C4CC4)c3)CC2)cc1
[1]
  EC50: 2950 nM
[2]
  EC50: 948 nM
[3]
  CC50: 65100 nM

## CC(=O)Nc1ccc(NC2=CC(=NS(=O)(=O)c3ccccc3)c3ccccc3C2=O)cc1
[1]
  EC50: 509 nM
[2]
  EC50: 466 nM
[3]
  CC50: 6880 nM

## COC(=O)c1ccccc1NC(=O)COc1cccc(OC)c1
[1]
  EC50: > 1410 nM
[2]
  EC50: 1860 nM
[3]
  CC50: > 10000 nM

## CCCN(CCC)[P+](CCC)(c1ccc([P+](CCC)(N(CCC)CCC)N(CCC)CCC)cc1)N(CCC)CCC
[1]
  EC50: 193 nM
[2]
  EC50: 66.8 nM
[3]
  CC50: 72600 nM

## COc1cccc2cc(-c3nc(-c4ccccc4)cs3)c(=O)oc12
[1]
  EC50: > 611 nM
[2]
  EC50: > 1250 nM
[3]
  CC50: > 10000 nM

## CNc1nc(Cl)nc(Nc2ccccc2)n1
[1]
  EC50: > 482 nM
[2]
  EC50: 1650 nM
[3]
  CC50: > 10000 nM

## O=C(Cc1ccccc1)NCCCCNc1ccnc2cc(Cl)ccc12
[1]
  EC50: 330 nM
[2]
  EC50: 316 nM
[3]
  CC50: > 9600 nM

## CCCOC(=O)C1=C(C)NC2=C(C(=O)CC(c3ccc(OC)cc3)C2)C1c1ccccc1Cl (configuration not stated)
[1]
  EC50: 27.2 nM
[2]
  EC50: 22.1 nM
[3]
  CC50: > 100000 nM

## O=C1CN(C(=O)CCC2CCCC2)C(c2ccc(F)cc2)c2cc(Cl)ccc2N1 (configuration not stated)
[1]
  EC50: 231 nM
[2]
  EC50: 180 nM
[3]
  CC50: 26300 nM

## CN(C)c1ccc(/C=C2/SC(=Nc3ccc(O)cc3)NC2=O)cc1
[1]
  EC50: 2820 nM
[2]
  EC50: > 12500 nM
[3]
  CC50: > 100000 nM

## CC(NC(=O)c1cnn2c(C(F)(F)F)cc(-c3ccc(Br)cc3)nc12)c1ccccc1 (configuration not stated)
[1]
  EC50: > 10800 nM
[2]
  EC50: 1520 nM
[3]
  CC50: > 100000 nM

## CC1C/C(=C/c2ccncc2)C(=O)/C(=C/c2ccncc2)C1 (configuration not stated)
[1]
  EC50: 1210 nM
[2]
  EC50: 990 nM
[3]
  CC50: > 10000 nM

## COC(=O)c1c(-c2c(Cl)cccc2Cl)noc1NC(=O)NN1CCCCC1
[1]
  EC50: 277 nM
[2]
  EC50: 151 nM
[3]
  CC50: > 100000 nM

## O=C(Nc1ccc(N2CCCCC2)cc1)c1cc2ccccc2o1
[1]
  EC50: > 1300 nM
[2]
  EC50: 634 nM
[3]
  CC50: > 3660 nM

## CC(C)(C)C1=NN(CC(=O)Nc2ccc3c(c2)OCO3)C(=O)c2cc3ccccc3n2C1
[1]
  EC50: > 12500 nM
[2]
  EC50: 3160 nM
[3]
  CC50: 9810 nM

## O=C(Nc1ccc(C(F)(F)F)cc1)c1ccc(NCCCN2CCCCCC2)c([N+](=O)[O-])c1
[1]
  EC50: 120 nM
[2]
  EC50: 328 nM
[3]
  CC50: 21200 nM

## Cn1c(SCC(=O)Nc2cccc(F)c2)nc2c(c1=O)SCC2
[1]
  EC50: 2380 nM
[2]
  EC50: 2150 nM
[3]
  CC50: > 100000 nM

## CC(=O)Nc1ccc(C(=O)N2CCC(Oc3cccc(CN(C)Cc4cccc5ccccc45)c3)CC2)cc1
[1]
  EC50: > 1250 nM
[2]
  EC50: 945 nM
[3]
  CC50: > 10000 nM

## Cc1ccn2c(NC(C)(C)CC(C)(C)C)c(-c3ccccc3OC(=O)C(c3ccccc3)c3ccccc3)nc2c1
[1]
  EC50: 746 nM
[2]
  EC50: 71.8 nM
[3]
  CC50: > 1120 nM

## CCCOc1ccc(C2Sc3ccccc3N=C3C2=C(O)c2ccccc23)cc1OC (configuration not stated)
[1]
  EC50: 483 nM
[2]
  EC50: 178 nM
[3]
  CC50: > 100000 nM

## CCOC(=O)c1c(S(=O)(=O)Nc2ccc(C(C)(C)C)cc2)c(-c2ccccc2)n(-c2ccccc2)c1C
[1]
  EC50: 696 nM
[2]
  EC50: 425 nM
[3]
  CC50: > 100000 nM

## CCC1CN2CCc3cc(OC)c(OC)cc3C2CC1CC1NCCc2cc(OC)c(OC)cc21 (configuration not stated)
[1]
  EC50: 35.7 nM
[2]
  EC50: 36 nM
[3]
  CC50: 23700 nM

## CCCOC(=O)C1=C(C)NC2=C(C(=O)CC(c3ccc(Cl)cc3)C2)C1c1ccc(Cl)cc1 (configuration not stated)
[1]
  EC50: 294 nM
[2]
  EC50: 398 nM
[3]
  CC50: > 69800 nM

## CCSc1nc2sc3c(c2c(=O)n1-c1ccccc1)CCN(Cc1ccccc1)C3
[1]
  EC50: 85.8 nM
[2]
  EC50: 34.8 nM
[3]
  CC50: > 68400 nM

## CC(=O)N(C1=C(N2CCOCC2)C(=O)c2ccccc2C1=O)c1ccc(F)c(F)c1
[1]
  EC50: 74.3 nM
[2]
  EC50: 57.5 nM
[3]
  CC50: 3480 nM

## CCCCOC(=O)c1ccc(NC2=C(c3ccc(OC)cc3)C(=O)c3ccccc32)cc1
[1]
  EC50: 1210 nM
[2]
  EC50: 758 nM
[3]
  CC50: > 100000 nM
